How the values were obtained:
[1] = tested on: β-tubulin; assay: Tubulin polymerization inhibition (beta-tubulin ELISA in HepG2 cells); format: cell-based, human; details: HepG2 cells, each compound at its IC50 concentration (9 1.38, 10 2.52, 11 3.21, podo 2.08 μM), ELISA
Procedure: The selected candidates were tested at a concentration equal to their IC50 concentration dose value. […] See Section 3.3.2 in Supplementary Material. […] page 18: 3.3. Biological studies 3.3.1. Cytotoxic activity evaluation To measure the cytotoxic activity of the synthesized derivatives 2a-11 in hepatocel- lular carcinoma (HepG2) cell line (ATCC Cat No. HB-8065) as well as normal human liver cell line HL-7702 (ATCC Cat. No. 77402), cell viability assay was assessed using MTT assay method. Cells at density of 1 x 104 were seeded in a 96-well plate at 37 °C for 24 h under 5% CO2. After incubation, the cells were treated with different concentrations of the test compounds 2a-11 and incubated for 24 h, then 20 μl of MTT solution at 5 mg/mL was […] Dimethyl sulphoxide (DMSO) in volume of 100 μl was added to each well to dissolve the purple formazan that had formed. The color […] of the formazan product, which represents the growth condition of the cells, is quan- […] by using an ELISA plate reader (EXL 800, USA) at 570 nm absorbance. The experi- mental conditions were carried out with at least three replicates, and the experiments were repeated at least three times. 3.3.2. Tubulin inhibitions Assay […] according to the manufacturer's instructions using # abcam Human Beta-tubulin […] ELISA Kit ab245722. 3.3.3. Cell cycle analysis of compound 9 Cell cycle analysis in HepG2 cells was investigated using fluorescent Annexin V- FITC/ PI detection kit (BioVision EZCellTM Cell Cycle Analysis Kit Catalog #K920) by flow cytometry assay. […] twice in PBS. After that, the cells were incubated at 37 °C and 5% CO2. […] Apoptosis assay for compound 9 Apoptosis in HepG2 cells was investigated using fluorescent Annexin V-FITC/ PI de- tection kit (BioVision Annexin V-FITC Apoptosis Detection Kit, Catalog #: K101) by flow cy- tometry assay. […] The samples were immediately analyzed using FACS Calibur flow cytometer (Becton and Dickinson, Heidelberg, Germany). 3.3.5. Measurement of mitochondrial membrane potential (MMP) for compound 9 MMP was measured by FACS analysis using abcam ab113852TMRE Mitochondrial Membrane Potential Assay Kit with DiOC2(3) staining using MitoProbeTM DiOC2(3) Assay Kit for Flow Cytometry (M34150). After treatment with compound 9 at its IC50 concentra- tion, cells were stained with DiOC2(3) dye for 30 min in the incubator, then harvested and washed with PBS. […] The samples were immediately analyzed using cell Quest software. […] Effect on p53, Bax and Bcl-2 p53, Bax and Bcl2 enzyme activities in HepG2 cells were detected in the presence of com- pound 9 at its IC50 concentration (μM). The levels of the tumor suppressor gene p53, apoptotic markers Bax as well as the anti-apoptotic marker Bcl-2 were assessed using p53 ELISA kit, Human Bax ELISA kit and Bcl-2 Elisa kit. […]

[2] = tested on: p53; assay: ELISA quantification of p53 level; format: cell-based, human; details: HepG2, 1.38 μM (IC50), 48 h
Procedure: Compound 9 was screened for its ability to activate p53 and Bax as well as downregulate the level of Bcl-2 to investigate the mechanistic apoptotic pathway that catalyzed the apoptosis process. HepG2 cells were treated with compound 9 at a concentration equal to its IC50 in μM, and the level of p53, Bax, and Bcl-2 was quantized using ELISA analysis. The results obtained for compound 9 show the increase in the level of p53 and Bax by 8.91- and 4.50-fold, respectively, compared with the negative control samples.
Apoptotic markers (p53, Bax and Bcl-2) were measured in HepG2 cells using ELISA analysis according to the manufacturer’s directions. See Section 3.3.6 in Supplementary Material.
Figure 6 (A) The quantification of p53. (B) The quantification of Bax. (C) The quantification of Bcl-2. HepG2 cells were treated with 1.38 μM of compound 9 for 48 h and apoptotic markers were determined by ELISA assay.
3.3.1. Cytotoxic activity evaluation
To measure the cytotoxic activity of the synthesized derivatives 2a-11 in hepatocel-lular carcinoma (HepG2) cell line (ATCC Cat No. HB-8065) as well as normal human liver cell line HL-7702 (ATCC Cat. No. 77402), cell viability assay was assessed using MTT assay method. […] The color inten-sity of the formazan product, which represents the growth condition of the cells, is quan-tified by using an ELISA plate reader (EXL 800, USA) at 570 nm absorbance. […]

## COc1ccc(C2=N/C(=C\c3cc(OC)c(OC)c(OC)c3)C(=O)NN2c2ccccc2)cc1OC [Compound 9, (Z)-3-(3,4-Dimethoxyphenyl)-2-Phenyl-5-(3,4,5-Trimethoxybenzylidene)-1,2-Dihydro-1,2,4-Triazin-6(5H)-one]
[1]
  β-tubulin polymerization inhibition percentage: 86.73%
other
  melting point: 248 to 250 °C
[2]
  increase in level of p53 compared with negative control: 8.91 fold
